One test has as its target JAK2 (Homo sapiens, UniProt O60674). As to the kind of experiment: ADP-Glo JAK2 kinase assay. Type of test: biochemical. As to conditions: read-out: IC50, In vitro enzyme JAK2. Here is the method: 10 mM of Compound 1 was diluted in DMSO to prepare samples at four concentrations (5,000 nM, 500 nM, 50 nM and 5 nM). 10 mM of ATP was diluted at 1/40 in 1× kinase buffer to make a preparation. 1 mg/mL of IGFIRtide was used as a stock solution. 100 ng/μL of JAK2 enzyme was diluted at 1/20 in 1× kinase buffer to make a preparation. 1 μL of ATP, 1 μL of IGFIRtide, and 1 μL of Compound 1 prepared as above were mixed, after which 2 μL of JAK2 enzyme was finally added and reacted at 30° C. for 40 minutes. At this time, a tube without JAK2 enzyme was prepared as a blank and a tube without Compound 1 was prepared as a positive control group together (a final concentration of samples was 1,000 nM, 100 nM, 10 nM, and 1 nM).
Then, 5 μL of ADP-glo was added to each tube and reacted at 30° C. for 40 minutes, after which 10 μL of kinase detection reagent was added thereto and reacted at room temperature for 15 minutes. After 18 μL of the reactant was transferred to a 384 well plate, luminescence was measured using a plate reader.

In another test the test system is RBL-2H3 cells. Kind of test: IL-4 secretion inhibitory activity in Basophil cells. Type of test: cell-based. As to conditions: FIG. 8. As to the method:
RBL-2H3 cells were diluted in 10% FBS EMEM medium and divided in a 24-well plate to reach 1×10^5 cells/well. The cells were incubated in a 37° C. incubator for 18 hours or longer.
The test material (Compound 1) was treated at each concentration (at a final concentration of 0, 0.1, 0.5 and 1 μM) under PMA (50 nmol/L) and A23187 (1 μmol/L) stimulation. The cells were incubated in a 37° C. incubator for 24 hours. Then, the reaction was terminated on ice, after the degree of IL-4 secretion in the culture supernatant was measured by IL-4 ELISA kit.

A further test concerns JAK1, 3. As to the kind of experiment: In vitro cell assay, JAK1, 3 (NK-92 cells, IL-2). Type of test: cell-based. As to conditions: NK92, read-out: IC50, Cell Biology JAK1, 3. As to the method: In addition, NK-92 cell is a natural killer cell line, which grows in an IL-2-dependent way, and is derived from peripheral blood mononuclear cells, and thus is suitable for evaluating the activity of JAK1 and JAK3 by IL-2. Thus, in order to evaluate the activity of JAK1 and JAK3, NK-92 cells were prepared.
The test material was dissolved in DMSO, prepared at 10 mM, divided by 20 μL each, and stored at −20° C.
• EPO: 2000 U/0.5 mL of stock was divided by 50 μL each and stored under refrigeration. • IL-2: 200 μg/ml of stock was prepared, divided by 5 μL each, and stored, and then treated at 2 ng/ml. (IL-2 1 μg/ml=13000 U/ml) • IFN-alphaB2: […] of stock was diluted and used, and then treated to reach 30000 U/ml.
• UT-7/EPO cell assay: MEM-alpha (Gibco, cat #12561-056) was prepared to contain 5% FBS and 1% P/S before use. • NK-92 cell assay: A preparation was made to contain HBSS, 1% FBS and 1% P/S before use. • U2OS cell assay: A preparation was made to contain HBSS, 1% FBS and 1% P/S before use.
The cultured cells were centrifuged (1,000 rpm, 5 minutes) and washed with PBS. The size of cell lines and appropriate reaction concentration thereof were set and the cell lines were seeded in a 96-well plate at 1×10^5 to 10^6 cells/well (50 μL/well). […]

Another test relates to JAK2, Tyk2. Kind of test: Human whole blood assay, JAK2, Tyk2. It is filed as cell-based. The conditions noted are these: cytokine-induced STAT phosphorylation. As to the method:
A stock solution of Compound 1 obtained according to Preparation Example 1 was diluted with distilled water and then serially diluted at ⅕ with 4% DMSO. 5 μL of test material was added to 100 μL of whole blood collected using a 1.7 mL eppendorf tube, mixed, and incubated at 37° C. for 45 minutes.
IL-6 (10 μg/ml) was diluted with 0.1% BSA/DW to reach 1 μg/mL each. 5 μL of IL-6 was added (at a final concentration of 50 ng/mL) and incubated at 37° C. for 15 minutes. At this time, 5 μL of DPBS was added as a non-stimulated control group. Lyse/fix buffer 5× was diluted 1× in distilled water and used. […]
For double staining of CD4 and pSTATI, anti-[…] and anti-pSTATI were mixed in a staining buffer and added to each of the samples. […] On the next day, the results were analyzed using FACSCanto II. […]
The numerical values analyzed by FlowJo were calculated to obtain IC50 values using GraphPad Prism 5 software (product name).
No treatment response (NTR) was set as a reference, and the degree of the phosphorylation of STAT induced by cytokines was converted into a relative ratio (% control group). A dose-response plot was obtained for each concentration-dependent activity of each test material using GraphPad Prism (version 5.0) and ICso values were calculated.

Chain of JAK2 (O60674 whole entry, species assumed): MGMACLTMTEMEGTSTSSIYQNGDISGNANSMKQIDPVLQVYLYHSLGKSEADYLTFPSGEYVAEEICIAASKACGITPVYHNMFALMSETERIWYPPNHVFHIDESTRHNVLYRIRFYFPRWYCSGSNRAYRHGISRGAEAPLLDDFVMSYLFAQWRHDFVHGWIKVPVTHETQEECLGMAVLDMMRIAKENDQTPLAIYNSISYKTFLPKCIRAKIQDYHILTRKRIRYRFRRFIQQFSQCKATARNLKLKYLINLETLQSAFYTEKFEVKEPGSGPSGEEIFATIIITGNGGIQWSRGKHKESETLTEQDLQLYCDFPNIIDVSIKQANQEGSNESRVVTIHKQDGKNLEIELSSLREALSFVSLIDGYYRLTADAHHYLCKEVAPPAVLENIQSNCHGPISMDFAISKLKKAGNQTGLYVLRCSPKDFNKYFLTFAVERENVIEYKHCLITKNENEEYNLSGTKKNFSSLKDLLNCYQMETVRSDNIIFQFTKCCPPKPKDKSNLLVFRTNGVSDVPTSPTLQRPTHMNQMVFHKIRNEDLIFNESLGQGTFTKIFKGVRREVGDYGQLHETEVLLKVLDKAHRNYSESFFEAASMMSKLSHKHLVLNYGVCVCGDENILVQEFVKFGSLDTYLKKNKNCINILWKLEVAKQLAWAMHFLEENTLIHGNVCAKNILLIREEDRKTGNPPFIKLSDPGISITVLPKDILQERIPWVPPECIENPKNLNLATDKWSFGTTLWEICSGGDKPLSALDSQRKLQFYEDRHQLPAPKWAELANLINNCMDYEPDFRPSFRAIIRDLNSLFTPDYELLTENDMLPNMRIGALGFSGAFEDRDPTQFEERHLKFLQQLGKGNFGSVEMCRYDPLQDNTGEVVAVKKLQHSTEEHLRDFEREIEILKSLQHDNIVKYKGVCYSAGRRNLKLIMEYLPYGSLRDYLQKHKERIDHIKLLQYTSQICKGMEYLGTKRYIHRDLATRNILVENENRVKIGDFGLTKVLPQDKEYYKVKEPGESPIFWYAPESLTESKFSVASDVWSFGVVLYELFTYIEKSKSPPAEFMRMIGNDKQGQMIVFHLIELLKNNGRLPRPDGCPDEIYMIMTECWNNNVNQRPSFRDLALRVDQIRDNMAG

Take `C[C@@H]1CN(C(=O)CC#N)CC=C1c1cc(NC(=O)C2CC2)nc2[nH]ccc12` [Compound 1, (S)—N-(4-(1-(2-cyanoacetyl)-3-methyl-1,2,3,6-tetrahydropyridin-4-yl)-1H-pyrrolo[2,3-b]pyridin-6-yl)cyclopropanecarboxamide]: the IC50 at JAK2 is 68 nM; in the test with JAK1, 3, 163 nM; in the test with JAK2, Tyk2 it was 3640 nM. For the same compound, in the test on RBL-2H3 cells (0.5 μM and 1 μM), the “IL-4 concentration compared to the negative control group (vehicle)” value was “remarkably reduced to almost ½ or more”. In addition, the IL-4 secretion result with RBL-2H3 cells (RBL-2H3 cells, PMA and A23187 stimulation, 24 hours) is “inhibits IL-4 secretion”.

(Values after patent US20240300943A1, “NOVEL SALTS OF HETEROCYCLIC COMPOUND AS PROTEIN KINASE INHIBITOR AND USES THEREOF” (HK INNO.N CORPORATION, priority 2021, published 2024).)
